From patent US20100105722A1, “Substituted 4,5,6,7-tetrahydrothienopyridines as KCNQ2/3 Modulators” (GRUENENTHAL GmbH, priority 2008, published 2010) come the findings set out here.

The target of experiment [1] is T1, hKCNQ2/3 (Homo sapiens, UniProt O43525+O43526).
T1 construct: expressed in transfected cells; host or cells: CHO-K1
Kind of experiment: Fluorescence assay using a voltage sensitive dye (fluorimetry). Conditions: for Emax at 10 µM: relative to retigabine = 100%. The format is cell-based. The procedure:
Fluorescence Assay using a Voltage Sensitive Dye
Human CHO-K1 cells expressing KCNQ2/3 channels are cultivated adherently at 37° C., 5% CO2 and 95% humidity in cell culture bottles (e.g. 80 cm^2 TC flasks, Nunc) with DMEM-high glucose (Sigma Aldrich, D7777) including 10% FCS (PAN Biotech, e.g. 3302-P270521) or alternatively MEM Alpha Medium (1×, liquid, Invitrogen, #22571), 10% fetal calf serum (FCS) (Invitrogen, #10270-106, heat-inactivated) and the necessary selection antibiotics.
Before being sown out for the measurements, the cells are washed with a 1×DPBS buffer without Ca^2+/Mg^2+ (e.g. Invitrogen, #14190-094) and detached from the bottom of the culture vessel by means of Accutase (PAA Laboratories, #L11-007) (incubation with Accutase for 15 min at 37° C.). The cell count then present is determined using a CASY™ cell counter (TCC model, Schärfe System) in order subsequently to apply, depending on the density optimization for the individual cell line, 20,000-30,000 cells/well/100 μl of the described nutrient medium to 96-well measuring plates of the Corning™ CellBIND™ type (Flat Clear Bottom Black Polystyrene Microplates, #3340). Incubation is then carried out for one hour at room temperature, without gassing or adjusting the humidity, followed by incubation for 24 hours at 37° C., 5% CO2 and 95% humidity.
The voltage-sensitive fluorescent dye from the Membrane Potential Assay Kit (Red™ Bulk format part R8123 for FLIPR, MDS Analytical Technologies™) is prepared by dissolving the contents of a vessel Membrane Potential Assay Kit Red Component A in 200 ml of extracellular buffer (ES buffer, 120 mM NaCl, 1 mM KCl, 10 mM HEPES, 2 mM CaCl2, 2 mM MgCl2, 10 mM glucose; pH 7.4). After removal of the nutrient medium, the cells are washed with 200 μl of ES buffer, then covered with a layer of 100 μl of the dye solution prepared above and incubated for 45 min at room temperature with the exclusion of light.
The fluorescence measurements are carried out with a BMG Labtech FLUOstar™, BMG Labtech NOVOstar™ or BMG Labtech POLARstar™ instrument (525 nm excitation, 560 nm emission, Bottom Read mode). After incubation of the dye, 50 μl of the test substances in the desired concentrations, or 50 μl of ES buffer for control purposes, are introduced into separate cavities of the measuring plate and incubated for 30 min at room temperature while being shielded from light. The fluorescence intensity of the dye is then measured for 5 min and the fluorescence value F1 of each well is thus determined at a given, constant time. 15 μl of a […] KCl solution ([…]) are then added to each well. The change in fluorescence is subsequently measured until all the relevant measured values have been obtained (mainly 5-30 min). At a given time after KCl application, a fluorescence value F2 is determined, in this case at the time of the fluorescence peak.
For calculation, the fluorescence intensity F2 is compared with the fluorescence intensity F1, and the agonistic activity of the target compound on the potassium channel is determined therefrom. F2 and F1 are calculated as follows: […]
In order to determine whether a substance has agonistic activity, […]
for example, can be compared with […]
is determined by adding to the reaction batch only the buffer solution instead of the test substance, determining the value F1K of the fluorescence intensity, adding the potassium ions as described above, and measuring a value F2K of the fluorescence intensity. F2K and F1K are then calculated as follows: […]
A substance has an agonistic activity on the potassium channel when […]
Independently of the comparison of […]
it is possible to conclude that a target compound has agonistic activity if an increase in […]
is to be observed as the dosage of the target compound increases.
Calculations of EC50 and IC50 values are carried out with the aid of ‘Prism v4.0’ software (GraphPad Software™).

The subject of experiment [2] is formalin-induced nociceptive behavior. Kind of experiment: Formalin test in the rat (phase II, chronic pain component). The format is in vivo. The conditions noted are these: for Formalin test rat i.v. @ 10 mg/kg % reduction in noiceptive behavior: comparison experiments table; for Formalin test rat i.v. % reduction in nociceptive behavior: phase II, Table 3. The procedure: Formalin Test in the Rat The formalin test (Dubuisson, D. and Dennis, S. G., 1977, Pain, 4, 161-174) represents a model for both acute and chronic pain. In the studies presented here, the chronic pain component (phase II of the formalin test; time period 21-27 min after formalin administration) was evaluated. A biphase nociceptive reaction is induced in freely mobile test animals by a single formalin injection into the dorsal side of a rear paw, the reaction being detected by observation of three clearly distinguishable behavior patterns. Formalin is administered subcutaneously into the dorsal side of the right rear paw of each animal in a volume of 50 μl and a concentration of 5%. The vehicle and the test substances are administered intravenously 5 min, or orally 30 min, before the formalin injection. The specific changes in behavior, such as lifting and shaking of the paw, weight displacement of the animal and biting and licking reactions, are observed and recorded continuously up to 60 min after the formalin administration. […] Rats of the strain Sprague Dawley (Janvier, Belgium) are used as the animal strain. The weight of the animals is 180-200 g; the size of the group was n=10.

Experiment [3] addresses T1, hKCNQ2/3. The experiment is described as follows: Voltage clamp (patch-clamp) measurements on stably transfected hKCNQ2/3 CHO-K1 cell line. The experiment is classed as cell-based. The conditions noted are these: at -40 mV, relative to retigabine (10 μM) = 100%, read-out: patch-clamp % Efficacy @ 10 μM (retigabine = 100%). The procedure: Voltage Clamp Measurements
In order to confirm a KCNQ2/3-agonistic action of the substances electro-physiologically, patch-clamp measurements (Hamill O P, Marty A, Neher E, Sakmann B, Sigworth F J.: Improved patch-clamp techniques for high-resolution current recording from cells and cell-free membrane patches, Pflugers Arch. 1981 August; 391(2):85-100) were carried out in voltage clamp mode on a stably transfected hKCNQ2/3 CHO-K1 cell line. After formation of the gigaseal, the cells were first clamped at a holding potential of −60 mV. Thereafter, depolarizing voltage jumps were applied up to a potential of +20 mV (increment: 20 mV, duration: 1 second) in order to confirm the functional expression of KCNQ2/3-typical currents. The testing of the substances was carried out at a potential of −40 mV. The increase in current induced by retigabine (10 μM) at −40 mV was first recorded as a positive control on each cell. After complete washing out of the retigabine effect (duration: 80 s), the test substance (10 μM) was applied. The increase in current induced by the test substance was standardized to the retigabine effect and indicated as the relative efficacy (see below).

The mark [4] stands for this setting: 10 μM, comparison experiments table, read-out: Fluorimetry % Efficacy @ 10 μM (retigabine = 100%).
[5] abbreviates: CHO-K1, 10 μM, CHO-K1 cells expressing KCNQ2/3, Table 3, read-out: Fluorimetry % Efficacy @ 10 μM (reti-gabine = 100%).
The mark [6] stands for this setting: CHO-K1 cells expressing KCNQ2/3, Table 3.

For `O=C(CCC(=O)N1CCn2cccc2C1c1ccccc1)NCc1cccc(C(F)(F)F)c1` (stereo not shown) [Example No. 2 of WO 2008/046582, reference compound], the Emax at 10 µM at hKCNQ2/3 [1] (setting [4]) turned out to be 115%. This compound showed an EC50 at hKCNQ2/3 [1] (comparison experiments table) of 2810 nM. For the same compound, in experiment [2], the “Formalin test rat i.v. @ 10 mg/kg % reduction in noiceptive behavior” value is on record as “no effect”.
As for `O=C(CCC(=O)N1CCc2sccc2C1c1ccccc1)NCc1cccc(C(F)(F)F)c1` (stereo not shown) [Illustrative compound 2, 4-oxo-4-(4-phenyl-6,7-dihydrothieno[3,2-c]pyridin-5(4H)-yl)-N-(3-(trifluoromethyl)benzyl)butanamide], the Emax at 10 µM at hKCNQ2/3 [1] (setting [4]) stood at 145%; on hKCNQ2/3 [1] (setting [5]), 165%; on hKCNQ2/3 [3] it was 106%. Further, the EC50 at hKCNQ2/3 [1] (setting [6]) was 758 nM; on hKCNQ2/3 [1] (comparison experiments table), 1440 nM. In addition, the “Formalin test rat i.v. @ 10 mg/kg % reduction in noiceptive behavior” value in experiment [2] was 56%. In addition, the “Formalin test rat i.v. % reduction in nociceptive behavior” value (shortened to “Formalin test rat i.v. % reduction”) in experiment [2] (dose 10.0 mg/kg) is on record as 56 (10.0) %.
Take `O=C(CCC(=O)N1CCc2sccc2C1c1cccs1)NCc1cccc(C(F)(F)F)c1` (stereo not shown) [compound 1]: the Emax at 10 µM on hKCNQ2/3 [1] (setting [4]) came to 165%; at hKCNQ2/3 [1] (setting [5]), 168%; at hKCNQ2/3 [3] it was 97%. In addition, the figures for the EC50 at hKCNQ2/3 [1] (setting [6]) and at hKCNQ2/3 [1] (comparison experiments table) were 1690 nM and 760 nM, respectively.
Consider `Cc1ccccc1C1c2ccsc2CCN1C(=O)CCC(=O)NCc1cccc(C(F)(F)F)c1` (stereo not shown) [compound 8], for which, on hKCNQ2/3 [1] (setting [5]), the Emax at 10 µM was 148%. The compound also had an EC50 at hKCNQ2/3 [1] (setting [6]) of 79 nM. Moreover, the “Formalin test rat i.v. % reduction” value in experiment [2] (dose 4.64 mg/kg) is given as 11 (4.64) %.
With `O=C(CCC(=O)N1CCc2sccc2C1c1ccccc1)NCc1ccccc1C(F)(F)F` (stereo not shown) [compound 17], at hKCNQ2/3 [1] (setting [5]), the Emax at 10 µM was found to be 74%. This compound also displayed an EC50 at hKCNQ2/3 [1] (setting [6]) of 62 nM. The “Formalin test rat i.v. % reduction” value in experiment [2] (dose 10.0 mg/kg) is 15 (10.0) %.
As for `CC(C)c1ccccc1C1c2ccsc2CCN1C(=O)CCC(=O)NCc1cccc(C(F)(F)F)c1` (stereo not shown) [compound 252], a half-maximal response at hKCNQ2/3 [1] (setting [6]) (EC50) required 1010 nM.
Turning to `Cc1ccsc1C1c2ccsc2CCN1C(=O)CCC(=O)NCc1cccc(C(F)(F)F)c1` (stereo not shown) [compound 254], on hKCNQ2/3 [1] (setting [6]), the EC50 stood at 211 nM.
`Cc1ccccc1C1c2ccsc2CCN1C(=O)CCC(=O)NCc1ccccc1C(F)(F)F` (stereo not shown) [compound 256]: the EC50 on hKCNQ2/3 [1] (setting [6]) was determined as 90 nM. Against the preceding compound, the EC50 is about 2.3-fold lower.
As to `Cc1ccccc1C1c2ccsc2CCN1C(=O)CCC(=O)NCc1ccc(C(F)(F)F)cc1` (stereo not shown) [compound 257], at hKCNQ2/3 [1] (setting [6]), the EC50 came out at 547 nM.
Regarding `CCCCC1c2sccc2CCN1C(=O)CCC(=O)NCc1cccc(C(F)(F)F)c1` (stereo not shown) [compound 258], on hKCNQ2/3 [1] (setting [6]), the EC50 was 306 nM.
Regarding `O=C(CCC(=O)N1CCc2sccc2C1C1CC1)NCc1cccc(C(F)(F)F)c1` (stereo not shown) [compound 260], at hKCNQ2/3 [1] (setting [6]), the EC50 was found to be 108 nM. Further, in experiment [2] (dose 4.64 mg/kg), the “Formalin test rat i.v. % reduction” value was 46 (4.64) %. Moreover, the Emax at 10 µM on hKCNQ2/3 [3] was 91%.
The compound `O=C(CCC(=O)N1CCc2sccc2C1CCc1ccccc1)NCc1cccc(C(F)(F)F)c1` (stereo not shown) [compound 261] displayed an EC50 at hKCNQ2/3 [1] (setting [6]) of 84 nM.
In the case of `Cc1cc(F)ccc1C1c2ccsc2CCN1C(=O)CCC(=O)NCc1cccc(C(F)(F)F)c1` (stereo not shown) [compound 262], the EC50 on hKCNQ2/3 [1] (setting [6]) turned out to be 166 nM. Compared with the last compound, the EC50 is about 2-fold higher.
Consider `O=C(CCC(=O)N1CCc2sccc2C1C1CCCC1)NCc1cccc(C(F)(F)F)c1` (stereo not shown) [compound 263], for which, on hKCNQ2/3 [1] (setting [6]), the EC50 is 160 nM.
Still for that read-out and setting: the result for `O=C(CCC(=O)N1CCc2sccc2C1CCCc1ccccc1)NCc1cccc(C(F)(F)F)c1` (stereo not shown) [compound 265] reads 596 nM; that for `O=C(CCC(=O)N1CCc2sccc2C1c1ccccc1)N1CCc2ccc(C(F)(F)F)cc2C1` (stereo not shown) [compound 269], 519 nM.
`O=C(CCC(=O)N1CCc2sccc2C1c1ccccc1)N1CCc2c(cccc2C(F)(F)F)C1` (stereo not shown) [compound 271] gave an EC50 on hKCNQ2/3 [1] (setting [6]) of 431 nM.
Same read-out and setting: the result for `Cc1ccccc1C1c2sccc2CCN1C(=O)CCC(=O)NCc1cccc(C(F)(F)F)c1` (stereo not shown) [compound 274] reads 323 nM.
In turn, `O=C(CCC(=O)N1CCc2ccsc2C1C1CCCCC1)NCc1cccc(C(F)(F)F)c1` (stereo not shown) [compound 275] returned an EC50 on hKCNQ2/3 [1] (setting [6]) of 962 nM.
